Reference: patent US8367713B2, “Inhibition and dispersion of bacterial biofilms with imidazole-triazole derivatives” (North Carolina State University, priority 2008, dated 2013)
Counter-ions that a name gives are not always drawn. Like-named read-outs stand apart in the source and are kept apart here.

Columns and labels:
A. baumannii biofilms = assay: Static bacterial biofilm inhibition assay (crystal violet), A. baumannii; type: cell-based, Acinetobacter baumannii; design: inhibition of A. baumannii biofilm development: dose or concentration left out as unconfirmed; conditions: for IC50: read-out: IC50 of biofilm inhibition, A. baumannii
Protocol: (§1) Each 2-AIT conjugate was initially screened at 300 μM for their ability to inhibit P. aeruginosa PAO1 and PA14 biofilms, A. baumannii biofilms and B. bronchiseptica Rb50 biofilms using a crystal violet reporter assay (G. A. O'Toole, R. Kolter, Molecular Microbiology 1998, 2, 295-304). […] This is an order of magnitude increase in activity when compared to DHS (J. J. Richards, R. W. Huigens, T. E. Ballard, A. Basso, J. Cavanagh, C. Melander, Chemical Communications 2008, 14, 1698-1700). […] 6 also dispersed pre-formed A. baumanni biofilms with an EC50 of 400 μM (FIG. 2A).
(§2) General Static Bacterial Biofilm Inhibition Assay Procedure for A. baumannii, P. aeruginosa, B. bronchiseptica and S. aureus: Biofilm inhibition assays were performed by taking an overnight culture of bacterial strain and subculturing it at an OD600 of 0.01 into the necessary growth liquid medium (LB for A. baumannii, LBNS for P. aeruginosa, Stainer Scholte medium that was supplemented with […] of 100× nutrient complex for B. bronchiseptica and TSBG for S. aureus) for the strain. The compound being tested was then added at a predetermined concentration and then aliquoted (100 μL) into the wells of a 96-well PVC microtiter plate (Wells not used for samples are filled with 100 μL of de-ionized water). Plates were then wrapped in GLAD Press n′ Seal® and incubated under stationary conditions at 37° C. After 24 hours, the media was discarded from the wells and the plates were washed thoroughly with tap water. Plates were then stained with 100 μL of 0.1% solution of crystal violet (CV) and then incubated at an ambient temperature for 30 minutes. Sample plates were then washed with tap water again and the remaining stain was solubilized with 200 μl, of 95% ethanol. Biofilm inhibition was quantitated by measuring the OD540 for each well by transferring 125 μL of the solubilized CV stain into a polystyrene microtiter dish for analysis.

MRSA = assay: Biofilm inhibition at 100 μM, MRSA; type: cell-based; conditions: Staphylococcus aureus, biofilm inhibition, 100 μM, read-out: MRSA % Inhibition
Protocol: Procedure to Determine the Inhibitory Effect of Test Compounds on E. faecium, MRSA, S. epidermidis, PAO1, PA14, E. Coli and MDRAB Biofilm Formation: Inhibition assays were performed by taking an overnight culture of bacterial strain and subculturing it at an OD600 of 0.01 into the necessary media (brain heart infusion for E. faecium, tryptic soy broth with a 0.5% glucose supplement (TSBG) for MRSA, Luria-Bertani (LB) media for MDRAB, Luria-Bertani media without NaCl (LBNS) for PAO1 and PA14, Luria-Bertani (LB) media for E. coli and tryptic soy broth with a 0.5% glucose supplement and a 3.0% NaCl supplement (TGN) for S. epidermidis. Stock solutions of predetermined concentrations of the test compound were then made in the necessary media. These stock solutions were aliquoted (100 μL) into the wells of the 96-well PVC microtiter plate. Sample plates were then wrapped in GLAD Press n′ Seal® followed by an incubation under stationary conditions for 24 h at 37° C. After incubation, the media was discarded from the wells and the plates were washed thoroughly with water. Plates were then stained with 100 μL of 0.1% solution of crystal violet (CV) and then incubated at ambient temperature for 30 min. Plates were washed with water again and the remaining stain was solubilized with 200 μL of 95% ethanol. A sample of 125 μL of solubilized CV stain from each well was transferred to the corresponding wells of a polystyrene microtiter dish. Biofilm inhibition was quantitated by measuring the OD540 of each well in which a negative control lane wherein no biofilm was formed served as a background and was subtracted out.
Biofilm inhibition has been tested for the following compounds, each of which was tested at a concentration of 100 μM.

[1] = test system: Staphylococcus aureus biofilm; assay: Static bacterial biofilm inhibition assay (crystal violet), S. aureus; type: cell-based
Protocol: as §2

[2] = test system: B. bronchiseptica Rb50 biofilms; assay: Static bacterial biofilm inhibition assay (crystal violet), Rb50; type: cell-based; conditions: Bordetella bronchiseptica, RB50BIOFILMS
Protocol: as §1, §2

[3] = test system: pre-formed B. bronchiseptica Rb50 biofilms; assay: Static bacterial biofilm dispersion assay, Rb50; type: cell-based; conditions: Bordetella bronchiseptica
Protocol: (§3) General Static Bacterial Biofilm Dispersion Assay Procedure for A. baumannii, P. aeruginosa and S. aureus: Dispersion assays were performed by taking an overnight culture of bacterial strain and subculturing it at an OD600 of 0.01 into the necessary growth liquid medium. The resulting bacterial suspension was aliquoted (100 μL) into the wells of a 96-well PVC microtiter plate. Plates were then wrapped in GLAD Press n′ Seal® followed by an incubation under stationary conditions at an ambient temperature. After 24 hours, the media was discarded from the wells and the plates were washed thoroughly with tap water. Predetermined concentrations of the compound were then made in the same medium used to initially grow the biofilms and then aliquoted (100 μL) into the wells of the 96-well PVC microtiter plate with the established biofilms. Plates were then wrapped in GLAD Press n′ Seal® and incubated under stationary conditions at 37° C. After 24 hours, the media was discarded from the wells and the plates were washed thoroughly with tap water. Plates were then stained with 100 μL of 0.1% solution of crystal violet (CV) and then incubated at room temperature for 30 minutes. Plates were then washed with tap water again and the remaining stain was solubilized with 200 μL of 95% ethanol. Biofilm dispersion was quantitated by measuring the OD540 for each well by transferring 125 μL of the solubilized CV stain into a polystyrene microtiter dish for analysis.
General Static Bacterial Biofilm Dispersion Assay Procedure for B. bronchiseptica: This procedure is identical to the general dispersion procedure described above except that initial biofilm formation in the absence of the test compound was carried out at 37° C.

[4] = test system: pre-formed P. aeruginosa PAO1 biofilms; assay: Static bacterial biofilm dispersion assay, PAO1; type: cell-based; conditions: Pseudomonas aeruginosa
Protocol: as §3

[5] = test system: P. aeruginosa PA14 biofilms; assay: Static bacterial biofilm inhibition assay (crystal violet), PA14; type: cell-based; conditions: Pseudomonas aeruginosa
Protocol: as §1, §2

[6] = test system: pre-formed A. baumannii biofilms; assay: Static bacterial biofilm dispersion assay, A. baumannii; type: cell-based; conditions: Acinetobacter baumannii
Protocol: as §3

[7] = test system: pre-formed P. aeruginosa PA14 biofilms; assay: Static bacterial biofilm dispersion assay, PA14; type: cell-based; conditions: Pseudomonas aeruginosa
Protocol: as §3

[8] = test system: A. baumannii, PAO1, PA14, Rb50, S. aureus (each bacterial strain); assay: Planktonic growth curves and colony counts, each bacterial strain; type: cell-based; conditions: each bacterial strain grown in the presence of compound
Protocol: The OD600 was recorded at 1, 3, 4, 5, 6 and 24 hours.
General Colony Count Procedure for A. baumannii, P. aeruginosa, B. bronchiseptica and S. aeureus: Colony counts were performed by incubating either bacterial strain in the presence and absence of the test compound at 37° C. in culture tubes until the sample with the absence of the test compound reached an OD600 of 0.40 from a starting OD600 of 0.01. This typically took three to four hours. Once the OD600 of approximately 0.40 was observed, 100 μL were taken from each culture tube from which serial dilutions were made. Then, 10 μL were removed from each serial dilution and plated out on a square gridded petri-dish followed by 16 hours of incubation at 37° C. period (48 hours for B. bronchiseptica) to grow countable colonies. Viable bacteria were quantified through employment of the track-dilution method (Jett et al., Bio Techniques. 1997, 23, 648-650).

[9] = test system: P. aeruginosa PAO1 biofilms; assay: Static bacterial biofilm inhibition assay (crystal violet), PAO1; type: cell-based; conditions: Pseudomonas aeruginosa
Protocol: as §1, §2

[10] = test system: pre-formed S. aureus biofilms; assay: Static bacterial biofilm dispersion assay, S. aureus; type: cell-based; conditions: Staphylococcus aureus
Protocol: as §3

## Nc1ncc[nH]1 [2-Aminomidazole, reference compound]
A. baumannii biofilms; up to 800 μM (highest concentration tested)
  activity against A. baumannii biofilm development: devoid of activity

## Nc1nc(CCCc2cn(CC(=O)N3CCCC3)nn2)c[nH]1 [2-{4-[3-(2-amino-1H-imidazol-4-yl)-propyl]-[1,2,3]triazol-1-yl}-1-pyrrolidin-1-yl-ethanone hydrochloride]
MRSA
  inhibition at 100 µM: 35.4 ± 5%

## Nc1nc(CCCc2cn(CC(=O)NCCCc3ccccc3)nn2)c[nH]1 [2-{4-[3-(2-amino-1H-imidazol-4-yl)-propyl]-[1,2,3]triazol-1-yl}-N-(3-phenyl-propyl)-acetamide hydrochloride]
MRSA
  inhibition at 100 µM: 64.8 ± 2%

## COc1ccc(CNC(=O)Cn2cc(CCCc3c[nH]c(N)n3)nn2)cc1 [2-{4-[3-(2-amino-1H-imidazol-4-yl)-propyl]-[1,2,3]triazol-1-yl}-N-(4-methoxy-benzyl)-acetamide hydrochloride]
MRSA
  inhibition at 100 µM: 71 ± 3%

## COc1ccc(NC(=O)Cn2cc(CCCc3c[nH]c(N)n3)nn2)cc1 [2-{4-[3-(2-amino-1H-imidazol-4-yl)-propyl]-[1,2,3]triazol-1-yl}-N-(4-methoxy-phenyl)-acetamide hydrochloride]
MRSA
  inhibition at 100 µM: 41.1 ± 2%

## COc1ccc(CCNC(=O)Cn2cc(CCCc3c[nH]c(N)n3)nn2)cc1 [2-{4-[3-(2-amino-1H-imidazol-4-yl)-propyl]-[1,2,3]triazol-1-yl}-N-[2-(4-methoxy-phenyl)-ethyl]-acetamide hydrochloride]
MRSA
  inhibition at 100 µM: 18.3 ± 5%

## Nc1nc(CCCc2cn(CC(=O)NCc3ccccc3)nn2)c[nH]1 [2-{4-[3-(2-amino-1H-imidazol-4-yl)-propyl]-[1,2,3]triazol-1-yl}-N-benzyl-acetamide hydrochloride]
MRSA
  inhibition at 100 µM: 58.1 ± 2%

## Nc1nc(CCCc2cn(CC(=O)NC3CCCCC3)nn2)c[nH]1 [2-{4-[3-(2-amino-1H-imidazol-4-yl)-propyl]-[1,2,3]triazol-1-yl}-N-cyclohexyl-acetamide hydrochloride]
MRSA
  inhibition at 100 µM: 40.5 ± 4%

## Nc1nc(CCCc2cn(CC(=O)NC3CCCC3)nn2)c[nH]1 [2-{4-[3-(2-amino-1H-imidazol-4-yl)-propyl]-[1,2,3]triazol-1-yl}-N-cyclopentyl-acetamide hydrochloride]
MRSA
  inhibition at 100 µM: 64 ± 4%

## CCCCCCNC(=O)Cn1cc(CCCc2c[nH]c(N)n2)nn1 [2-{4-[3-(2-amino-1H-imidazol-4-yl)-propyl]-[1,2,3]triazol-1-yl}-N-hexyl-acetamide hydrochloride]
MRSA
  inhibition at 100 µM: 83.1 ± 16%

## CC(C)NC(=O)Cn1cc(CCCc2c[nH]c(N)n2)nn1 [2-{4-[3-(2-amino-1H-imidazol-4-yl)-propyl]-[1,2,3]triazol-1-yl}-N-isopropyl-acetamide hydrochloride]
MRSA
  inhibition at 100 µM: 36.4 ± 3%

## Nc1nc(CCCc2cn(CC(=O)Nc3ccccc3)nn2)c[nH]1 [2-{4-[3-(2-amino-1H-imidazol-4-yl)-propyl]-[1,2,3]triazol-1-yl}-N-phenyl-acetamide hydrochloride]
MRSA
  inhibition at 100 µM: 41.9 ± 2%

## CC(C)(C)NC(=O)Cn1cc(CCCc2c[nH]c(N)n2)nn1 [2-{4-[3-(2-amino-1H-imidazol-4-yl)-propyl]-[1,2,3]triazol-1-yl}-N-tert-butyl-acetamide hydrochloride]
MRSA
  inhibition at 100 µM: 28.2 ± 15%

## C/C(=C\c1ccccc1)Cn1cc(CCc2c[nH]c(N)n2)nn1 [Compound 7, 4-{2-[1-(2-Methyl-3-phenyl-allyl)-1H-[1,2,3]triazol-4-yl]-ethyl}-1H-imidazol-2-ylamine hydrochloride]
A. baumannii biofilms; Acinetobacter baumannii
  IC50: 220 µM

## C/C(=C\c1ccccc1)Cn1cc(Cc2c[nH]c(N)n2)nn1 [Compound 8, 4-[1-(2-Methyl-3-phenyl-allyl)-1H [1,2,3]triazol-4-ylmethyl]-1H-imidazol-2-ylamine hydrochloride]
A. baumannii biofilms; (highest concentration tested)
  inhibition of A. baumannii biofilm development: < 50%

## C/C(=C\c1ccccc1)Cn1cc(CCCn2ccnn2)nn1 [Compound 9, 1-(2-Methyl-3-phenyl-allyl)-4-(3-[1,2,3]triazol-1-yl-propyl)-1H-[1,2,3]triazole]
A. baumannii biofilms; Acinetobacter baumannii, at the highest concentration studied (800 μM), read-out: inhibition of A. baumannii biofilm development
  inhibition at 800 µM: < 30%

## C/C(=C\c1ccccc1)Cn1cc(CCCCc2cnc(N)[nH]2)nn1 [Compound 10, 4-{4-[1-(2-Methyl-3-phenyl-allyl)-1H-[1,2,3]triazol-4-yl]-butyl}-1H-imidazol-2-ylamine]
[1]
  IC50: 7000 nM
A. baumannii biofilms; Acinetobacter baumannii
  IC50: 2.8 µM
[2]
  IC50: 23 µM
[3]
  EC50: 59 µM
[4]
  EC50: 81 µM
[5]; P. aeruginosa PA14
  IC50: 4000 nM
[6]
  EC50: 210 µM
[7]
  EC50: 35 µM
[8]
  bactericidal / microbicidal activity (colony counts and growth curves): not due to bactericidal activity
[9]
  IC50: 15 µM
[10]
  EC50: 16 µM

## C/C(=C\c1ccccc1)Cn1cc(CCCCCc2c[nH]c(N)n2)nn1 [Compound 11, 4-{5-[1-(2-Methyl-3-phenyl-allyl)-1H-[1,2,3]triazol-4-yl]-pentyl}-1H-imidazol-2-ylamine hydrochloride]
[1]; S. aureus, value in nM
  IC50: 810 nM
A. baumannii biofilms; Acinetobacter baumannii
  IC50: 0.98 µM
[2]
  IC50: 9.5 µM
[3]
  EC50: 55 µM
[4]
  EC50: 11 µM
[5]; PA14, value in nM
  IC50: 530 nM
[6]
  EC50: 120 µM
[7]
  EC50: 22 µM
[8]
  bactericidal / microbicidal activity (colony counts and growth curves): not due to microbicidal activity
[9]
  IC50: 5.6 µM
[10]
  EC50: 2.6 µM
